The values that follow come from US20060172357A1, “Detecting human antibodies in non-human serum” (Genentech, priority 2004, published 2006).

pKd: −log10 of the molar value. Where two headings read alike, the source gives them in different places. The star is where a group is joined. Biotin = O=C1N[C@H]2[C@H](CS[C@H]2CCCCC(=O)*)N1

The target in experiment [1] is rhuMAb2H7. Particulars: apparent affinity; Method 2; peptide immobilized on streptavidin chip, 2H7-IgG injected, bivalent analyte model. The protocol:
In the second method, affinities were measured with a Biacore 3000 on a strepavidin chip using either immobilized CD20-35 mer, bis(biotin)) at 685 RU, CD20(51-mer, mono(biotin)) at 1637 RU, or CD20(51-mer, bis(biotin)) at 1037 RU.
PBS/Tween/azide was used as the running buffer, at 20 μL/minute, with 20 mM HCl for regeneration. 2H7-IgG was injected, and the resulting data was fit to a bivalent analyte model.

Experiment [2] concerns the target rhuMAb2H7. To be noted: apparent equilibrium dissociation constant; Method 1; peptide immobilized on streptavidin chip, 2H7-IgG injected. How it is done:
In the first method, affinities were measured with a Biacore 3000 on a strepavidin chip using either immobilized mono-biotinylated CD20-35 mer at 95 RU, or mono-biotinylated CD20-51 mer at 94 RU, where RU is a relative surface plasmon resonance unit based upon an arbitrary scale. The running buffer was HBS-EP flowing at 50 μL/min with 25 μl of 10 mM Glycine-HCl, and a pH of 2.5 for the regeneration. 2H7-IgG was injected, and the resulting data was fit to a 1:1 binding model with Biaevaluation 3.0 software (Biacore AB, Uppsala, Sweden) to get the apparent equilibrium dissociation constants.

A further experiment addresses T1, CD20 full Length (Homo sapiens, UniProt P11836).
T1 construct: MKHQHQQ leader (N); octa-His (C); made in house; host or cells: E. coli
T1 sequence (P11836 1-297): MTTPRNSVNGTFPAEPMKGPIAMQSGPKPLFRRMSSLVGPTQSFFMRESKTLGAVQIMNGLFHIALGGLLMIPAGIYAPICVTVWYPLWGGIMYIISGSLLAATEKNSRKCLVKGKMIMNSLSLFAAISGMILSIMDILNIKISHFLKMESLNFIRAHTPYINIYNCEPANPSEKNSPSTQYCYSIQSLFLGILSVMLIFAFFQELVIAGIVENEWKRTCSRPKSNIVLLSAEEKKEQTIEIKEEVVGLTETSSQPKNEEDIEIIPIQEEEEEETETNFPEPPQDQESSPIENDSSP
The experiment can be described thus: ELISA using full-length CD20 molecule as the capture reagent. The format is binding. Particulars: N 8. How it is done: […] The plate was then washed for 3 times with the washing buffer (PBS with 0.05% polysorbate-20). Blocking buffer (200 μl) was added and the plate was sealed and incubated at room temperature for 2 hours with a gentle agitation. […] After incubating at room temperature for another hour with a gentle agitation, the plate was washed again with the washing buffer for six times and blotted dry. A volume of 100 μl of the detection agent diluted with the detection agent diluent was added and the plate was sealed and incubated at room temperature for one hour with a gentle agitation. The plate was then washed for another six times and blotted dry before the addition of 100 μl of an equal volume of TMB and H2O2. After incubating at room temperature for 15 minutes without agitation, the reaction was stopped by adding another 100 μl of 1 M H3PO4. The absorbance at 450 nm subtracted of that at 650 nm was read from the Spectra Max250 plate reader (Molecular Devices Corporation, Sunnyvale, Calif.), and the data were processed using SoftmaxPro (Molecular Devices Corporation, Sunnyvale, Calif.).
On the technique in general: ELISA stands for enzyme-linked immunosorbent assay.

With “Biotin GKISHFLKMESLNFIRAHTPYINIYNCEPANPSEKNSPSTQYCYSIQSGGK (Biotin)-amide [Bis-CD20-51mer]”, the pKd at rhuMAb2H7 [1] was 6.96.

On to “Biotin-FIRAHTPYINIYNCEPANPSEKNSPSTQYCYSGGK(Biotin)-NH2 (cysteine pairing not given here) [Bis-CD20-35mer]”, for which, on rhuMAb2H7 [1], the pKd is 6.30.

In the case of “Biotin-FIRAHTPYINIYNCEPANPSEKNSPSTQYCYSGGK-NH2 (cysteine pairing not given here) [Mono-CD20-35mer]”, the pKd at rhuMAb2H7 [2] was 4.38.

For the substance “Biotin-GKISHFLKMESLNFIRAHTPYINIYNCEPANPSEKNSPSTQYCYSIQSGGK-NH2 (cysteine pairing not given here) [Mono-CD20-51 mer]”, the figures for the pKd on rhuMAb2H7 [2] and at rhuMAb2H7 [1] were 7.33 and 6.89, respectively.

Turning to “Rituxan: anti-CD20 antibody, generated as disclosed in U.S. Pat. No 5,736,137”, the “signal of 247 ng/ml of antibody” value in the experiment with CD20 full Length (capture reagent 1 μg/mL in PBS, detection Goat anti-hu F(ab′)2 HRP) is recorded as 0.065 O.D.450 nm; with CD20 full Length (capture reagent 1 μg/mL in PBS, detection Sheep anti-hu IgG HRP (Monkey Adsorbed)), 0.012 O.D.450 nm; with CD20 full Length (capture reagent 5 μg/mL in PBS, detection Goat anti-hu F(ab′)2 HRP) it was 0.166 O.D.450 nm; with CD20 full Length (capture reagent 5 μg/mL in PBS, detection Sheep anti-hu IgG HRP (Monkey Adsorbed)), 0.023 O.D.450 nm.

Broadly, the pKd is −log10 of the Kd, conventionally taken in molar units.
